Assay results from PMC7010361 (ACS chemical biology, 2019).

Biological target: BRD4 in HeLa cells (Homo sapiens, UniProt O60885)
Test: Western blot analysis of BRD4 degradation
Assay type: cell-based
Conditions: HeLa cells treated 24 h with varying concentrations; GAPDH loading control

BRD4 degradation (western blot): dose dependent degradation of BRD4
Structure (SMILES): Cc1ncsc1-c1ccc(CNC(=O)[C@@H]2C[C@@H](O)CN2C(=O)[C@@H](NC(=O)COCCOCCOCCNC(=O)C[C@@H]2N=C(c3ccc(Cl)cc3)c3c(sc(C)c3C)-n3c(C)nnc32)C(C)(C)C)cc1 [MZ1]
